Laboratory results: publication PMC8546428, “Convergent olfactory trace amine-associated receptors detect biogenic polyamines with distinct motifs via a conserved binding site” (The Journal of Biological Chemistry, 2021)
Residue numbers refer to the chain shown, from its start.

Columns and labels:
[1] = biological target: T1, mTAAR9 E7.36D (Mus musculus, UniProt Q5QD04, E294D); assay: CRE-luciferase reporter assay, mTAAR9 mutant in Hana3A; format: cell-based; details: read-out: EC50 (mean ± S.D., n = 3)
T1 construct: expressed in transfected cells; host or cells: Hana3A (HEK293-derived)
T1 sequence (Q5QD04 1-348 E294D): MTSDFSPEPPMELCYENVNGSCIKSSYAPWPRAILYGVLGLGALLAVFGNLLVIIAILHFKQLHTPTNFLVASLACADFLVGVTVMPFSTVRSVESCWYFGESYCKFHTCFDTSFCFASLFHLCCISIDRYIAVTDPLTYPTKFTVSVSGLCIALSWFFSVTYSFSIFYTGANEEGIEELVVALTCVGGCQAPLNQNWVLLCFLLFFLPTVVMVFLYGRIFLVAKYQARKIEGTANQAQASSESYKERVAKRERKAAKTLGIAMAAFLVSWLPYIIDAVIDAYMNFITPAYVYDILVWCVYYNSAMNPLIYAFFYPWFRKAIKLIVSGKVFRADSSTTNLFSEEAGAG

[2] = biological target: T2, mTAAR9 W7.40F (Mus musculus, UniProt Q5QD04, W298F); assay: as above; format: cell-based; details: read-out: EC50 (mean ± S.D., n = 3)
T2 construct: expressed in transfected cells; host or cells: Hana3A (HEK293-derived)
T2 sequence (Q5QD04 1-348 W298F): T1 sequence (Q5QD04 1-348 E294D) with D294E, W298F

[3] = biological target: T3, mTAAR9 W7.40A (Mus musculus, UniProt Q5QD04, W298A); assay: as above; format: cell-based; details: read-out: EC50 (mean ± S.D., n = 3)
T3 construct: expressed in transfected cells; host or cells: Hana3A (HEK293-derived)
T3 sequence (Q5QD04 1-348 W298A): T1 sequence (Q5QD04 1-348 E294D) with D294E, W298A

[4] = biological target: T4, sTAAR365 T7.42V (Petromyzon marinus, UniProt A0A678XMK4, T298V)
T4 sequence (A0A678XMK4 1-365 T298V): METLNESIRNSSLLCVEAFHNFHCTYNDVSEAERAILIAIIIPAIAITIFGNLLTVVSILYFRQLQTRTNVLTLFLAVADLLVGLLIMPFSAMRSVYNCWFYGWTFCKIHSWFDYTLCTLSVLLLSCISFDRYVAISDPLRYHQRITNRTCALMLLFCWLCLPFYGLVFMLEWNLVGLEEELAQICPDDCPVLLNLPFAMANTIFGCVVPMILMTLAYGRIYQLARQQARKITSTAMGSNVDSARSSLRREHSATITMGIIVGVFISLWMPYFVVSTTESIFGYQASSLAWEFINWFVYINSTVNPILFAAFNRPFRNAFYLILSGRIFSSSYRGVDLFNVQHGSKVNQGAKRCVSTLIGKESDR

[5] = biological target: sTAAR365 Y7.43A (Petromyzon marinus, UniProt A0A678XMK4, Y299A); assay: cell-based
Sequence of sTAAR365 Y7.43A (A0A678XMK4 whole entry Y299A): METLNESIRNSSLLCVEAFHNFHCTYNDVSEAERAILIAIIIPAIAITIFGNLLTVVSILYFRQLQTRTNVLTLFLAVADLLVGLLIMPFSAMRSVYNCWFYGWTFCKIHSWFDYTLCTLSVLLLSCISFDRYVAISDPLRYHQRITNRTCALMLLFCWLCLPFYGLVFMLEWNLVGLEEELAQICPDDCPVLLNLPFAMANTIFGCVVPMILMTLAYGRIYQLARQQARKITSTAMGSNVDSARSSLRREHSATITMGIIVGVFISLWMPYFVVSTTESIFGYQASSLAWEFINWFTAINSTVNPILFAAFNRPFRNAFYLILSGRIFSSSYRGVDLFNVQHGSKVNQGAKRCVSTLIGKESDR

[6] = biological target: sTAAR365 Y7.43Q (Petromyzon marinus, UniProt A0A678XMK4, Y299Q); assay: cell-based
Sequence of sTAAR365 Y7.43Q (A0A678XMK4 whole entry Y299Q): as the sequence (A0A678XMK4 whole entry Y299A) above, with A299Q counted along it

[7] = biological target: sTAAR365 Y7.43S (Petromyzon marinus, UniProt A0A678XMK4, Y299S); assay: cell-based
Sequence of sTAAR365 Y7.43S (A0A678XMK4 whole entry Y299S): as the sequence (A0A678XMK4 whole entry Y299A) above, with A299S counted along it

[8] = biological target: T5, WT mTAAR9 (Mus musculus, UniProt Q5QD04); assay: CRE-luciferase reporter assay, wild-type mTAAR9 in Hana3A; format: cell-based; details: mouse TAAR9, ligand 1 mM, Fig. 1B
T5 construct: Rho-tag (first 20 amino acids of bovine rhodopsin) (N); expressed in transfected cells; host or cells: Hana3A (HEK293-derived)
T5 sequence (Q5QD04 1-348): T1 sequence (Q5QD04 1-348 E294D) with D294E
Experimental: Mammalian TAAR9 plasmids were transfected into Hana3A cells along with a cAMP-dependent luciferase reporter plasmid (CRE-Luc). Transfected cells were incubated with tested ligands, and luciferase activity was quantified with a […] substrate as a reporter for Golf-mediated TAAR activation. Luciferase activity was indicated by the luminescence value and normalized as a fold-increase over the response to the vehicle stimuli (mean ± S.D., n = 3). […] B, Hana3A cells expressing mouse, rat, human, cat, hamster, and rabbit TAAR9 were incubated with either vehicle or tested ligands (1 mM) and assayed for reporter activity. C, concentration-dependent luciferase activity in Hana3A cells expressing mouse, rat, and cat TAAR9 receptors stimulated with cadaverine, spermidine, and spermine.
The firefly luciferase and renilla luciferase activity was measured with a BioTek microplate reader following manufacturer’s instructions.

[9] = test system: sTAAR348; details: expressed in HEK293T cells; cited from earlier work

NCCCCCN [cadaverine]
EC50 [1]: > 1000 µM
EC50 [2]: 83 ± 35 µM
EC50 [3]: > 1000 µM
increase of EC50 vs wild-type sTAAR365 [4]: over three
EC50 [5]: 144 ± 11 µM
EC50 [6]: 7 ± 0.3 µM
EC50 [7]: 124 ± 9 µM

NCCCCN [putrescine]
reporter activity (activation of TAAR9) [8]: not activated

NCCCNCCCCNCCCN [spermine]
response of sTAAR348 [9]: responds
